This passage reports Ki, Ratio Ki and Activity results from ChEMBL document CHEMBL1800026 (Bioorg Med Chem, 2010).

Assay [1] has as its target T1, Beta-2 adrenergic receptor (Homo sapiens, UniProt P07550). The assay is described as follows: Displacement of [3H]CGP-12177 from human beta2-adrenergic receptor expressed in HEK 293 cells. The assay is classed as cell-based, HEK293. In general terms: In a radioligand displacement assay an active substance lowers the binding of a labelled ligand.
Assay [2] concerns the target Beta-1 adrenergic receptor (Rattus norvegicus, UniProt P18090). Nature of the assay: Displacement of [3H]CGP-12177 from beta1-adrenergic receptor in Sprague-Dawley rat cortical membrane after 2 hrs.
The nature of assay [3]: Selectivity ratio of Ki for beta1-adrenergic receptor in Sprague-Dawley rat cortical membrane to Ki for human beta2-adrenergic receptor.
Assay [4] addresses T1, Beta-2 adrenergic receptor. The assay is described as follows: Displacement of [125I]-CYP from human beta2-adrenergic receptor expressed in COS-7 cells by gamma counting. Type of assay: cell-based.
Assay [5] concerns the target Beta-1 adrenergic receptor (Homo sapiens, UniProt P08588). The assay is described as follows: Displacement of [125I]-CYP from human beta1-adrenergic receptor expressed in COS-7 cells by gamma counting. The assay is classed as cell-based.
The species entered for the next assay is Homo sapiens. Nature of the assay: Selectivity ratio of Ki for human beta1-adrenergic receptor to Ki human beta2-adrenergic receptor.
For assay [6], the target named is Beta-2 adrenergic receptor (Rattus norvegicus) (UniProt P10608). The assay is described as follows: Agonist activity beta2-adrenergic receptor in rat ventricular myocytes assessed as cell contraction following electrical stimulation by optical edge tracking method using photodiode array in presence of receptor antagonist ICI 118551. The assay is classed as functional, cell-based.

For assay [7] the target is unchanged. The assay is described as follows: Agonist activity beta2-adrenergic receptor in rat ventricular myocytes assessed as cell contraction following electrical stimulation by optical edge tracking method using photodiode array in presence of receptor agonist zinterol. The assay is classed as functional, cell-based.

SMILES strings stand for the structures. Active and inactive are the calls of the source. No cut-off for these calls is given here.

T1 sequence (P07550 whole entry): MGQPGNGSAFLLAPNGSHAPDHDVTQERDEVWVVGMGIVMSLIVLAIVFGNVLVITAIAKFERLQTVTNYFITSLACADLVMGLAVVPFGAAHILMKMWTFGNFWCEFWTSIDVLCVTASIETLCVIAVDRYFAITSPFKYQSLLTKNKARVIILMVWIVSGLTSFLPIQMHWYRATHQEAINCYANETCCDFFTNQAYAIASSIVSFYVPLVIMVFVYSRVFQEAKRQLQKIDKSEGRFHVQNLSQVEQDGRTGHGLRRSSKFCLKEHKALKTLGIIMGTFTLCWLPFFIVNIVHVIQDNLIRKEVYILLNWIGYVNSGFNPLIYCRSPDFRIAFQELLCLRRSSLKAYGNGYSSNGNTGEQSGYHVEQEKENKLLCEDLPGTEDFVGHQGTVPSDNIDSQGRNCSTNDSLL
Beta-1 adrenergic receptor (Rattus norvegicus, UniProt P18090), sequence (P18090 whole entry): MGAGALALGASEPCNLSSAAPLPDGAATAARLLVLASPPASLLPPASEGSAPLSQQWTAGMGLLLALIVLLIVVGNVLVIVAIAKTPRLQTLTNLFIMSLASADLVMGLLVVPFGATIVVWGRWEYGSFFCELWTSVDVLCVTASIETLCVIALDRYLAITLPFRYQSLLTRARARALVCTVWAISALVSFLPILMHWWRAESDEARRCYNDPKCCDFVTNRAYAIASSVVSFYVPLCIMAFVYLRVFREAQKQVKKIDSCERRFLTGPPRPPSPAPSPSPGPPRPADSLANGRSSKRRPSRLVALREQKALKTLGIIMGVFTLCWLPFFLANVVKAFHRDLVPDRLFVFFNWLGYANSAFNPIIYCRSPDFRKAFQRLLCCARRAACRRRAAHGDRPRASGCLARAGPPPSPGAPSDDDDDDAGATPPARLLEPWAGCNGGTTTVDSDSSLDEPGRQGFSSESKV
Beta-2 adrenergic receptor (Rattus norvegicus), sequence (P10608 whole entry, looked up): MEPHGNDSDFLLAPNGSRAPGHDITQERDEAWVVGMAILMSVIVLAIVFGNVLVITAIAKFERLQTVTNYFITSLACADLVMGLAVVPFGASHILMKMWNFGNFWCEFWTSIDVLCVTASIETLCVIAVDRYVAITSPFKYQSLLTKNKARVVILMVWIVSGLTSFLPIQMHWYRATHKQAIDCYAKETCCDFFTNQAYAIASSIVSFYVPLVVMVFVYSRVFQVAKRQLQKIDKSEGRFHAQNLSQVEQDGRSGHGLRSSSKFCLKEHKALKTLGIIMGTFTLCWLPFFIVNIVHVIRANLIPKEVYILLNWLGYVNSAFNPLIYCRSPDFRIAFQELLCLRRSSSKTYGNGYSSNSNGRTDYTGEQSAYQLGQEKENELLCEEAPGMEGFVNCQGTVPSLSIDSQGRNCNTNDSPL
Beta-1 adrenergic receptor (Homo sapiens, UniProt P08588), sequence (P08588 whole entry): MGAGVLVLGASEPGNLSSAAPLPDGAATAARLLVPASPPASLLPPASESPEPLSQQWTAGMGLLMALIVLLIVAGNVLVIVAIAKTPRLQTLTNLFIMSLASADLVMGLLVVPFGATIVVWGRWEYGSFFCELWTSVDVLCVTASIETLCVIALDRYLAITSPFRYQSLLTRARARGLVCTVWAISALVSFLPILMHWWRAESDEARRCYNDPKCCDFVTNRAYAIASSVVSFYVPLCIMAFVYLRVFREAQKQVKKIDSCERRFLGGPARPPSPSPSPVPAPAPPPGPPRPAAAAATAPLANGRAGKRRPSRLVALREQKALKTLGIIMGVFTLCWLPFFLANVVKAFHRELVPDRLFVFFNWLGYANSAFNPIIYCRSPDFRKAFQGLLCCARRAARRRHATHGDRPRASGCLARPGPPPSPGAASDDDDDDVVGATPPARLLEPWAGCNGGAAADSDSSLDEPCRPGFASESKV

As usually defined, the Ki is a measure of affinity in units of concentration, obtained from inhibition or displacement. Read a high Ki as a looser hold on the target. Take `CC[C@@H](Cc1ccc(O)cc1)NC[C@H](O)c1cc(O)cc(O)c1` (racemic): the Ki worked out at 5.76 µM in assay [1] and 117 µM in assay [2]. In assay [3], the Ratio Ki was found to be 20.

`OCc1cc(C(O)CNCCCCCCCCCCCc2ccccc2)ccc1O` (stereo not given): the values for the Ki in assay [4] and in assay [5] were 0.22 µM and 2.3 µM, respectively. The Ratio Ki in the assay filed under Homo sapiens is 10.

`COc1ccc(C[C@H](C)NC[C@H](O)c2cc(O)cc(O)c2)c2ccccc12` (racemic) showed an inhibition constant Ki in assay [2] of 14.8 µM.

`C[C@H](Cc1ccc2ccccc2c1)NC[C@H](O)c1cc(O)cc(O)c1` had an inhibition constant (Ki) in assay [2] of 16.6 µM.

Regarding `CC[C@H](Cc1ccc(O)cc1)NC[C@H](O)c1cc(O)cc(O)c1`, the Ki amounted to 1.27 µM in assay [1] and 424 µM in assay [2]. For the same molecule, the Ratio Ki in assay [3] turned out to be 334. For the same molecule, the result in assay [6] was inactive. The result in assay [7] was Active.

Molecule `COc1ccc(C[C@@H](C)NC[C@H](O)c2cc(O)cc(O)c2)c2ccccc12` returned a Ki in assay [2] of 161 µM.

For `C[C@@H](Cc1ccc2ccccc2c1)NC[C@H](O)c1cc(O)cc(O)c1`, the Ki in assay [2] amounted to 27.1 µM.
